The numbers were not newly measured in patent US6638541B1, “Sexual desire and performance enhancement with protein-bound tryptophan” (priority 2002, dated 2003), which cites them from elsewhere.

The target in one series is T1, plasma albumin (Homo sapiens, UniProt P02768).
T1 construct: host or cells: blood plasma in vivo (endogenous circulating albumin)
As to conditions: after absorption, circulating in the blood.

The conditions of series [1]: higher dosages (greater than 12 gm per day); Hartmann, 1977.

T1 sequence (P02768 25-609): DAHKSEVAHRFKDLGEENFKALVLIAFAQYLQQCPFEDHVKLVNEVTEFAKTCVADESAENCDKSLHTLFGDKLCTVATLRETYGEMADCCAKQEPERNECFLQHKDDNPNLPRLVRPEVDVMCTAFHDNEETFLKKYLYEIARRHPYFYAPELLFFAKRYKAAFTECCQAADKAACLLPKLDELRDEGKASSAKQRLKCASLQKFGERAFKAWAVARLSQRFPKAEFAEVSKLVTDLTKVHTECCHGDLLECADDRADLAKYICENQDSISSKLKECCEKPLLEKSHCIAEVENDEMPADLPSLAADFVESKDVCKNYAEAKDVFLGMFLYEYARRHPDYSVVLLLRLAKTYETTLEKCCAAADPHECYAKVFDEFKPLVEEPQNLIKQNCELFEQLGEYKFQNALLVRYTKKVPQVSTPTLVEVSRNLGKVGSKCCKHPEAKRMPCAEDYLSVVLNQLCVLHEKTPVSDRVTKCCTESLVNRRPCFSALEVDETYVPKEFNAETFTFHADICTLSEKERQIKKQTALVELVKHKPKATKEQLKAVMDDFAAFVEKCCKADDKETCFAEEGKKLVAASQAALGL

`N[C@@H](Cc1c[nH]c2ccccc12)C(=O)O` [tryptophan]: at plasma albumin, the “fraction circulating as free tryptophan” value is given as 20% and the “fraction of tryptophan in blood bound to plasma albumin” value is “approximately 80%”. Further, the “dose at which the hypnotic dose-response curve plateaus” value with sleep / sleep latency (fairly flat dose-response curve, Schneider-Helmut and Spinweber, 1986) is listed as “approximately 1000 mg”. Also, the “dose sufficient to produce improved sleep” value in the series on sleep / sleep latency (given alone, people with mild insomnia or longer-than-average sleep latency) is recorded as 250 mg. In addition, the most frequent complaints entry in series [1] is “daytime sedation and nausea”.
